Measurements: patent publication US20150164910A1, “ANTIVIRAL COMPOUNDS AND METHODS OF USE” (The Regents of the University of Califonia, priority 2012, published 2015)

Key:
CVB3-H3 = assay: Plaque reduction assay, CVB3-H3 in HeLa-RW cells; format: cell-based, coxsackievirus B3; details: compound added 30 min before infection, CVB3-H3 MOI 1, HeLa-RW, 6 hours; log10(titer with DMSO only/titer with inhibitor)
[1] = system: eGFP-expressing recombinant CVB3; format: cell-based, coxsackievirus B3; details: eGFP-CVB3 m.o.i=1, compound added at time of infection, 6 hr post infection; 1-(% eGFP+ cells with compound/% with DMSO only); also: test concentration or dose not given here

Compound	Log10 reduction of virus titer (CVB3-H3)	Inhibition of infected cells [1] [%]
CCC(C)(C)Nc1c(-c2ccc(OC)c(CN3CCOCC3)c2)nc2cnccn12 [Compound 60, 2-[4-Methoxy-3-(4-morpholinylmethyl)phenyl]-N-(2-methyl-2-butanyl) imidazo[1,2-a]pyrazin-3-amine]	1.8	100
CCn1ncc2c(C(=O)Nc3ccc(C)c(S(N)(=O)=O)c3)cc(-c3cccs3)nc21 [Compound 19, 1-Ethyl-N-(4-methyl-3-sulfamoylphenyl)-6-(2-thienyl)-1H-pyrazolo[3,4-b] pyridine-4-carboxamide]	4.3	100
NC(=O)C1CCN(CC(=O)N2N=C3/C(=C/c4cccs4)CCCC3C2c2cccs2)CC1 (stereo not shown) [Compound 63, 1-{2-Oxo-2-[(7E)-3-(2-thienyl)-7-(2-thienylmethylene)-3,3a,4,5,6,7-hexahydro-2H-indazol-2-yl]ethyl}-4-piperidine-carboxamide]	4.2	100
CCCCNCC(=O)Nc1ccccc1N1CCCCC1 [Compound 65, N^2-Butyl-N-[2-(1-piperidinyl)phenyl] glycinamide]	−0.4	36.2
CCn1ncc2c(C(=O)Nc3ccc(C#N)cc3)cc(-c3cccs3)nc21 [Compound 20, N-(4-Cyanophenyl)-1-ethyl-6-(2-thienyl)-1H-pyrazolo [3,4-b]pyridine-4-carboxamide]	1.9	99.6
Cc1ccc(NC(=O)c2cc(-c3cccs3)nc3c2cnn3C(C)C)cc1S(N)(=O)=O [Compound 9, 1-Isopropyl-N-(4-methyl-3-sulfamoylphenyl)-6-(2-thienyl)-1H-pyrazolo[3,4-b] pyridine-4-carboxamide]	4.5	100
CS(=O)(=O)c1ccc(NC(=O)c2cc(-c3ccc(F)cc3)nc3ccccc23)cc1 [Compound 28, 2-(4-Fluorophenyl)-N-[4-(methylsulfonyl)phenyl]-4-quinolinecarboxamide]	4.5	99.6
Cc1ccc(F)cc1NC(=O)c1cc(-c2cccs2)nc2c1cnn2C(C)C [Compound 2, N-(5-Fluoro-2-methylphenyl)-1-isopropyl-6-(2-thienyl)-1H-pyrazolo[3,4-b] pyridine-4-carboxamide]	4.4	99.6
Cc1ccc2cc(CN(Cc3ccc(F)cc3)C(=O)c3cccs3)c(=O)[nH]c2c1C [Compound 37, N-[(7,8-Dimethyl-2-oxo-1,2-dihydro-3-quinolinyl)methyl]-N-(4-fluorobenzyl)-2-thiophene-carboxamide]	4.2	99.7
CC(C)c1cc(C(=O)Nc2ccccc2N2CCN(C)CC2)c2cnn(C(C)C)c2n1 [Compound 15, 1,6-Diisopropyl-N-[2-(4-methyl-1-piperazinyl)phenyl)-1H-pyrazolo[3,4-b]pyridine-4-carboxamide]	2.4	100
NC1=Nc2nc3ccccc3n2C(c2ccc3ccccc3c2)N1 (stereo not shown) [Compound 67, 4-(2-Naphthyl)-1,4-dihydro[1,3,5] triazino[1,2-a]benzimidazol-2-amine]	1.9	67.7
CCN(CC)CCNC1CCCc2c1[nH]c1ccc(C)cc21.Cl (stereo not shown) [Compound 66, N,N-Diethyl-2-[(6-methyl-2,3,4,9-tetrahydro-1H-carbazol-1-yl)amino] ethanaminium chloride]	4.4	99.6
CC(C)n1ncc2c(C(=O)Nc3ccc(F)cc3Cl)cc(-c3cccs3)nc21 [Compound 6, N-(2-Chloro-4-fluorophenyl)-1-isopropyl-6-(2-thienyl)-1H-pyrazolo[3,4-b] pyridine-4-carboxamide]	4.3	99.5
Cc1ccc([S+]([O-])Nc2cccc(C(=O)O)c2)cc1 (stereo not shown) [Compound 55, 3-{[(4-Methylphenyl)sulfinyl]amino} benzoic acid]	2.5	98.4
COc1ccc(-c2csc3ncn(CC(=O)c4ccc5c(c4)OCO5)c(=O)c23)cc1OC [Compound 54, 3-[2-(1,3-Benzodioxol-5-yl)-2-oxoethyl]-5-(3,4-dimethoxyphenyl) thieno[2,3-d]pyrimidin-4 (3H)-one]	3.2	87.6
CC/C(C)=N\NC(=O)c1cc(-c2cccs2)nc2ccccc12 [Compound 24, N′-[(2Z)-2-Butanylidene]-2-(2-thienyl)-4-quinoline-carbohydrazide]	4.0	100
Cc1cc(F)ccc1NC(=O)c1cc(-c2cccs2)nc2c1cnn2C(C)C [Compound 4, N-(4-Fluoro-2-methylphenyl)-1-isopropyl-6-(2-thienyl)-1H-pyrazolo[3,4-b] pyridine-4-carboxamide]	4.5	100
CC1Oc2ccc(NC(=O)c3cc(C4CC4)nc4c3cnn4C(C)C)cc2NC1=O (stereo not shown) [Compound 13, 6-Cyclopropyl-1-isopropyl-N-(2-methyl-3-oxo-3,4-dihydro-2H-1,4-benzoxazin-6-yl)-1H-pyrazolo [3,4-b]pyridine-4-carboxamide]	4.2	100
COc1ccc(NC(=O)c2cc(-c3cccs3)nc3c2cnn3C(C)C)cc1 [Compound 7, 1-Isopropyl-N-(4-methoxyphenyl)-6-(2-thienyl)-1H-pyrazolo [3,4-b]pyridine-4-carboxamide]	4.3	99.5
Nc1nnc(SCc2nc3cc(Cl)ccc3n2Cc2ccccc2)s1 [Compound 43, 5-{[(1-Benzyl-5-chloro-1H-benzimidazol-2-yl)methyl]sulfanyl}-1,3,4-thiadiazol-2-amine]	0.3	91.3
CC(C)c1cc(C(=O)Nc2cccc(N3CCCC3=O)c2)c2cnn(C(C)C)c2n1 [Compound 18, 1,6-Diisopropyl-N-[3-(2-oxo-1-pyrrolidinyl)phenyl]-1H-pyrazolo[3,4-b]pyridine-4-carboxamide]	4.0	97.9
CCCCOc1cc(C(=O)NCCN(CC)CC)c2ccccc2n1 [Compound 35, 2-Butoxy-N-[2-(diethylamino)ethyl]-4-quinoline-carboxamide, reference compound]	–	100
